From article PMC6556873, “Rapid Covalent-Probe Discovery by Electrophile-Fragment Screening” (Journal of the American Chemical Society, 2019)
Like-named read-outs stand apart in the source and are kept apart here.

Key:
[1] = biological target: T1, BSA (Bos taurus, UniProt P02769); parameters: Intact protein LC/MS covalent labelling, fragments in pools of five, 200 uM each, 4 °C; details: 24 h, 4 °C, pool of five; 200 µM; covalent
T1 construct: gene ALB

[2] = biological target: T2, NUDT7 (Homo sapiens, UniProt P0C024); parameters: Intact protein LC/MS covalent labelling, fragments in pools of five, 200 uM each, 4 °C; details: 24 h, 4 °C, pool of five; 200 µM; covalent
T2 construct: residues 14-235, E. coli, pNIC28-Bsa4, N-terminal His6 tag removed by TEV, construct 26672 Da
T2 sequence (P0C024 14-235): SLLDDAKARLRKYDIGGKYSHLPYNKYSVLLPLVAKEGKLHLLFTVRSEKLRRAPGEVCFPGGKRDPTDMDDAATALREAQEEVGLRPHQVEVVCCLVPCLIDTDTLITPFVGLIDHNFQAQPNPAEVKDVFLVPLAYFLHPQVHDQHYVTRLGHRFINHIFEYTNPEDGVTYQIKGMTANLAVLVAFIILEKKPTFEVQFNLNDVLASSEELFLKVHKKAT

[3] = biological target: T3, OTUB2 (OTUB2A) (Homo sapiens, UniProt Q96DC9); parameters: Intact protein LC/MS covalent labelling, fragments in pools of five, 200 uM each, 4 °C; details: 24 h, 4 °C, pool of five; 200 µM; covalent
T3 construct: full length residues 1-234, E. coli BL21(DE3)-R3, His tag removed by TEV, construct 27312 Da
T3 sequence (Q96DC9 1-234): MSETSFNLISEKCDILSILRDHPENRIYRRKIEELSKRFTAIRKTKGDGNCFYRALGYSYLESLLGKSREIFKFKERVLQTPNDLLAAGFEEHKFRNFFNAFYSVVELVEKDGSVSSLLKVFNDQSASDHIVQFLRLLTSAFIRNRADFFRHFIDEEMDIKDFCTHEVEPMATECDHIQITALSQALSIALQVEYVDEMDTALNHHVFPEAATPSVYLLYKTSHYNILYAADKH

[4] = biological target: T4, PCAF (Homo sapiens, UniProt Q92831); parameters: Intact protein LC/MS covalent labelling, fragments in pools of five, 200 uM each, 4 °C; details: 24 h, 4 °C, pool of five; 200 µM; covalent
T4 construct: gene KAT2B
T4 sequence (Q92831 whole entry, the tested form may be a part): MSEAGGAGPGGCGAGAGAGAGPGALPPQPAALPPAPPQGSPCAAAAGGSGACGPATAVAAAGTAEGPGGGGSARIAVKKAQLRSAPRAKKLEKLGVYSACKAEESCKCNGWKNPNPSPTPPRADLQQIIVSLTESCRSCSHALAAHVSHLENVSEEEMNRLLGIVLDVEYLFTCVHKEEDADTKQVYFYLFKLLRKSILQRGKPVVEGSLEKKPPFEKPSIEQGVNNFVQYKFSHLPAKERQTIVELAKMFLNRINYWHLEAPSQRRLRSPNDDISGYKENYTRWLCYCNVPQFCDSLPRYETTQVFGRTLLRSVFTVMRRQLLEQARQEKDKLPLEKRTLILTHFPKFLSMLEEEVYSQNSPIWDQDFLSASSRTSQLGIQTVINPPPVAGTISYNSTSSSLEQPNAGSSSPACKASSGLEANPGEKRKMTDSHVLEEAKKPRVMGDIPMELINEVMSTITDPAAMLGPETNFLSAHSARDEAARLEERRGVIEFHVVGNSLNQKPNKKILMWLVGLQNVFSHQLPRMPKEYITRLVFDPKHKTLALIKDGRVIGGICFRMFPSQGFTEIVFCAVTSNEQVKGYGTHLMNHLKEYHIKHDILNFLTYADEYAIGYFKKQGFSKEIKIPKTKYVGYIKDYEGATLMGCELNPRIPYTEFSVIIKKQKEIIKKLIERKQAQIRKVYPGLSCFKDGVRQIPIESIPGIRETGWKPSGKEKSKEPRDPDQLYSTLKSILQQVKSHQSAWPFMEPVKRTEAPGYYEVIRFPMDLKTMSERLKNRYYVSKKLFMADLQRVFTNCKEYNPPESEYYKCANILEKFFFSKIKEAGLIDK

[5] = in vitro; parameters: species or system CCD841, HEK293; details: human, hb2 cells, read-out: HB-2 Cells Viability (%)
[6] = in vitro; parameters: species or system HB2, HEK293; details: human, ccd841 cells
[7] = in vitro; parameters: species or system HB2, CCD841; details: human, hek293 cells

T1 sequence (P02769 whole entry, the tested form may be a part): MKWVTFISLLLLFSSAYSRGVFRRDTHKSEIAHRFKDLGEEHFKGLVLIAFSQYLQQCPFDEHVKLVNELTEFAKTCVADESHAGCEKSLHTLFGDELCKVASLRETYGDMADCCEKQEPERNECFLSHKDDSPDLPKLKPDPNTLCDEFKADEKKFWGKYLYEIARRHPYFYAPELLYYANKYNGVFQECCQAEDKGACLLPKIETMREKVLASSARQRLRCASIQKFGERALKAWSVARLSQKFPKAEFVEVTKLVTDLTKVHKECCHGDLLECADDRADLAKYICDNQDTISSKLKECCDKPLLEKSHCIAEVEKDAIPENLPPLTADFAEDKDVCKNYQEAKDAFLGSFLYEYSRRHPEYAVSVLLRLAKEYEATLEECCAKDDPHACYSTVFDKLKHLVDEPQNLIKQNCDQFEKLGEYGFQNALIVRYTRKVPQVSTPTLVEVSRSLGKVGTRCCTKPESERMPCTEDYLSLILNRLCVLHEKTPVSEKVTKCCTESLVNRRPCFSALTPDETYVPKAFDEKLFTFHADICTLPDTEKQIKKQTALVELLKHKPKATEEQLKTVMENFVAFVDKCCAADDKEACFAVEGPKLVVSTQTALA

SMILES | BSA [1] | NUDT7 [2] | OTUB2 [3] | PCAF [4] | viability at 48 h, 10 µM [5] [%] | viability at 48 h, 10 µM [6] [%] | viability at 48 h, 10 µM [7] [%]
Cc1nc(-c2ccc3c(c2)CCN3C(=O)CCl)cs1 [PCM-0102901] | 0 | 0.46 | 0 | 0 | 2.3 | 22.6 | 1.2
Cc1cccc(NC(=O)CCl)c1 [PCM-0102116] | 0 | 0 | 0.11 | 0 | 33.7 | 66.4 | 9
Cc1cccc(N2CCN(C(=O)CCl)CC2)c1.Cl [PCM-0102185] | 0 | 0.05 | 0 | 0 | 13.1 | 65.7 | 35.9
C=CC(=O)NCc1cnn2ccccc12 [PCM-0102561] | 0 | 0 | 0 | 0 | 108 | 124 | 95.2
CN(CC12CC3CC(CC(C3)C1)C2)C(=O)CCl [PCM-0102942] | 0 | 0.26 | 0.1 | 0 | 7.8 | 6.7 | 2.4
O=C(CCl)N1CCN(S(=O)(=O)c2cccc(F)c2)CC1 [PCM-0102327] | 0 | 0.13 | 0 | 0 | 5.2 | 45.3 | 8.1
O=C(CCl)Nc1cc2c(cc1Cl)OCCO2 [PCM-0102585] | 0 | 0.12 | 0 | 0 | 38.7 | 68 | 15
O=C(CCl)N1CCC(c2nc3ccccc3o2)CC1 [PCM-0102920] | 0 | 0 | 0 | 0 | 40.1 | 70 | 21.4
C=CC(=O)N1CCC(n2nnc3c2CCCC3)CC1 [PCM-0102437] | 0 | 0 | 0 | 0 | 106 | 92.9 | 91.5
O=C(CCl)Nc1cc(Cl)ccc1C(=O)O [PCM-0102412] | 0 | 0.16 | 0.07 | 0 | 99.3 | 100 | 89.4
Cc1ccc(NC(=O)CCl)c(Br)c1 [PCM-0102196] | 0 | 0.2 | 0.14 | 0 | 49.2 | 87.6 | 45.5
CC(C)C(=O)NNC(=O)CCl [PCM-0103014] | 0 | 0 | 0.09 | 0 | 98.8 | 95.1 | 126
C=CC(=O)NCC1CCCCC1 [PCM-0102766] | 0 | 0.05 | 0 | 0 | 97.5 | 114 | 79
CCN(C(=O)CCl)c1ccc(F)cc1 [PCM-0102900] | 0 | 0.29 | 0 | 0 | 61.2 | 13.6 | 10.3
C=CC(=O)NC1CC(C)(C)OC1(C)C (stereo not drawn) [PCM-0102562] | 0 | 0 | 0 | 0 | 107 | 114 | 94.8
O=C(CCl)NCC1CCOC1 (stereo not drawn) [PCM-0102596] | 0 | 0 | 0.13 | 0 | 93.6 | 90.8 | 112
CC(c1ccc(F)c(F)c1)N(C)C(=O)CCl (stereo not drawn) [PCM-0102438] | 0 | 0.14 | 0.08 | 0 | 23.2 | 39.3 | 16.4
O=C(CCl)N1N=C(c2ccco2)CC1c1ccco1 (stereo not drawn) [PCM-0102380] | 0 | 0.54 | 0 | 0 | 55.7 | 63.4 | 40.4
COC(=O)C1(NC(=O)CCl)CCCCC1 [PCM-0102734] | 0 | 0 | 0 | 0 | 98.3 | 95.1 | 112
CCOC(=O)C1CCN(C(=O)CCl)CC1 [PCM-0102656] | 0 | 0 | 0 | 0 | 86 | 90.3 | 69.4
CS(=O)(=O)c1ccc(Cl)c(NC(=O)CCl)c1 [PCM-0102220] | 0 | 0.05 | 0 | 0 | 45.5 | 60.9 | 21.3
Cc1ccccc1NC(=O)CCl [PCM-0102887] | 0 | 0 | 0 | 0 | 90.2 | 69.6 | 55.1
O=C(CCl)N1CCc2cc(S(=O)(=O)N3CCCCC3)ccc21 [PCM-0102705] | 0 | 0 | 0 | 0 | 4.2 | 28.8 | 51.1
Cc1ccc(S(=O)(=O)N2CCN(C(=O)CCl)CC2)cc1C [PCM-0102379] | 0 | 0.1 | 0 | 0 | 1.8 | 22.6 | 2.7
